Here are results for eight molecules from ChEMBL document CHEMBL4251601 (Eur J Med Chem, 2018).

Data set [1] has as its target CDK6/cyclin D3 (Homo sapiens, UniProt Q00534). As to the kind of experiment: Inhibition of CDK6/Cyclin-D3 (unknown origin) using histoneH1 as substrate after 90 mins by ADP-Glo assay. It is filed as protein-complex assay. (In general: ADP-Glo turns the ADP formed in a reaction into a luminescent signal.)
Data set [2] has as its target Cyclin-dependent kinase 4/cyclin D1 (Homo sapiens, UniProt P11802). As to the kind of experiment: Inhibition of CDK4/Cyclin-D1 (unknown origin) using histone-H1 as substrate after 90 mins by ADP-Glo assay. It is filed as protein-complex assay.
Data set [3] concerns the target CDK1/Cyclin A (Homo sapiens, UniProt P06493). As to the kind of experiment: Inhibition of CDK1/Cyclin-A2 (unknown origin) using histone-H1 as substrate after 90 mins by ADP-Glo assay. It is filed as protein-complex assay.
The species named for data set [4] is Homo sapiens. As to the kind of experiment: Selectivity ratio of IC50 for CDK1/Cyclin-A2 (unknown origin) to IC50 for CDK6/Cyclin-D3 (unknown origin).
Data set [5] in a line: Clearance in Sprague-Dawley rat at 2 mg/kg, iv administered as single dose by LC-MS/MS analysis. It is filed as ADME, organism-based. The note with it: in vivo.
Data set [6] can be described thus: Volume of distribution at steady state in Sprague-Dawley rat at 2 mg/kg, iv administered as single dose by LC-MS/MS analysis. It is filed as ADME, organism-based. The note with it: in vivo, read-out: Vdss.
Data set [7] can be described thus: Cmax in Sprague-Dawley rat at 5 mg/kg, po administered as single dose by LC-MS/MS analysis. Also on record: dose 5 mg/kg, route oral. It is filed as ADME, organism-based. The conditions noted are these: in vivo.
Data set [8] is described as follows: AUC (0 to 24 hrs) in Sprague-Dawley rat at 2 mg/kg, iv administered as single dose by LC-MS/MS analysis. On the set-up: dose 2 mg/kg, time < 24 hr, route intravenous. The conditions noted are these: in vivo. It is filed as ADME, organism-based.
Data set [9] is described as follows: AUC (0 to 24 hrs) in Sprague-Dawley rat at 5 mg/kg, po administered as single dose by LC-MS/MS analysis. The conditions noted are these: in vivo. It is filed as ADME, organism-based. On the set-up: time < 24 hr, dose 5 mg/kg, route oral.
The nature of data set [10]: (§1) AUC (0 to infinity) in Sprague-Dawley rat at 2 mg/kg, iv administered as single dose by LC-MS/MS analysis. It is filed as ADME, organism-based. Also on record: dose 2 mg/kg, route intravenous, time infinity. The conditions noted are these: Sprague-Dawley, in vivo.
Data set [11] is described as follows: (§2) AUC (0 to infinity) in Sprague-Dawley rat at 5 mg/kg, po administered as single dose by LC-MS/MS analysis. It is filed as ADME, organism-based. Also on record: dose 5 mg/kg, route oral, time infinity. The note with it: Sprague-Dawley, in vivo.
Data set [12] is described as follows: Half life in Sprague-Dawley rat at 2 mg/kg, iv administered as single dose by LC-MS/MS analysis. It is filed as ADME, organism-based. The conditions noted are these: in vivo.
The nature of data set [13]: Half life in Sprague-Dawley rat at 5 mg/kg, po administered as single dose by LC-MS/MS analysis. It is filed as ADME, organism-based. The note with it: in vivo.
Data set [14] is described as follows: (§3) Oral bioavailability in Sprague-Dawley rat at 5 mg/kg administered as single dose by LC-MS/MS analysis. It is filed as ADME, organism-based. The conditions noted are these: Sprague-Dawley, in vivo.
The nature of data set [15]: Unbound brain to plasma concentration ratio in mouse at 30 mg/kg, po. It is filed as ADME, organism-based. The conditions noted are these: read-out: K(p,uu,brain).
Data set [16] relates to U-87 MG. The data set is described as follows: Antiproliferative activity against human U87MG cells after 72 hrs by DAPI staining based assay. It is filed as functional, cell-based, U-87MG ATCC.
A short description of data set [17]: Half life in CD-1 mouse liver microsomes at 10 uM preincubated for 5 mins followed by NADP addition by LC-MS/MS analysis. It is filed as ADME, microsome. On the technique in general: Liver microsomes are a subcellular fraction often used to study metabolism.
A short description of data set [18]: Intrinsic clearance in CD-1 mouse liver microsomes at 10 uM preincubated for 5 mins followed by NADP addition by LC-MS/MS analysis. It is filed as ADME, microsome. The conditions noted are these: read-out: CLH.
Data set [19] in a line: Stability in CD-1 mouse liver microsomes assessed as parent compound remaining at 10 uM preincubated for 5 mins followed by NADP addition measured after 60 mins by LC-MS/MS analysis. It is filed as ADME, microsome. The note with it: read-out: Stability.
Data set [20] can be described thus: Stability in CD-1 mouse liver microsomes assessed as parent compound remaining at 10 uM measured after 60 mins in absence of NADPH-regenerating system by LC-MS/MS analysis. It is filed as ADME, microsome. The conditions noted are these: read-out: Stability.
The subject of data set [21] is Rattus norvegicus. The data set is described as §1. It is filed as ADME, organism-based. Also on record: dose 2 mg/kg, route intravenous, time infinity. The note with it: in vivo.
The subject of data set [22] is Rattus norvegicus. The description is as §2. It is filed as ADME, organism-based. Also on record: dose 5 mg/kg, route oral, time infinity. The conditions noted are these: in vivo.
Data set [23] concerns Rattus norvegicus. The description is as §3. It is filed as ADME, organism-based. The note with it: in vivo.
The nature of data set [24]: Unbound brain to plasma concentration ratio in CD-1 nude mouse at 100 mg/kg, po. The note with it: read-out: K(p,uu,brain). It is filed as ADME, organism-based.
Data set [25] is described as follows: Unbound brain to plasma concentration ratio in mouse at 1 mg/kg, iv after 5 mins. It is filed as ADME, organism-based. The note with it: read-out: K(p,uu,brain).

Each structure is given as a SMILES string.

Chain of CDK6/cyclin D3 (P30281 whole entry): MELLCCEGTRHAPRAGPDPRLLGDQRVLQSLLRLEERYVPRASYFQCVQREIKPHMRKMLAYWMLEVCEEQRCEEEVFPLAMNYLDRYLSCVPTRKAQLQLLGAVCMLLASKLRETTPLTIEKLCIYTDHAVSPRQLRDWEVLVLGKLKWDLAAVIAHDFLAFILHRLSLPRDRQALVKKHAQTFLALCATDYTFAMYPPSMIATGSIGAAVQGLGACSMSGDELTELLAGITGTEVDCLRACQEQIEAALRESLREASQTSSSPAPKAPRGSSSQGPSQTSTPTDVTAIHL
Chain of CDK6/cyclin D3 (Q00534 whole entry): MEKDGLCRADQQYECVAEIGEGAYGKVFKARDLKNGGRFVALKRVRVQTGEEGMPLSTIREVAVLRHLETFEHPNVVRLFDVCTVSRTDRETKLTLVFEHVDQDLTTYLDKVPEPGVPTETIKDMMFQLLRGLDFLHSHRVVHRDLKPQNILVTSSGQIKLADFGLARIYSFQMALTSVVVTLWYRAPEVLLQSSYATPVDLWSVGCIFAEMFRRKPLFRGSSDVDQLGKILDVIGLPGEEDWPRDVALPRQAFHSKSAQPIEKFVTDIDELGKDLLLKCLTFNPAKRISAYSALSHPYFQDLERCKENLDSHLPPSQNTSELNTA
Chain of Cyclin-dependent kinase 4/cyclin D1 (P11802 whole entry): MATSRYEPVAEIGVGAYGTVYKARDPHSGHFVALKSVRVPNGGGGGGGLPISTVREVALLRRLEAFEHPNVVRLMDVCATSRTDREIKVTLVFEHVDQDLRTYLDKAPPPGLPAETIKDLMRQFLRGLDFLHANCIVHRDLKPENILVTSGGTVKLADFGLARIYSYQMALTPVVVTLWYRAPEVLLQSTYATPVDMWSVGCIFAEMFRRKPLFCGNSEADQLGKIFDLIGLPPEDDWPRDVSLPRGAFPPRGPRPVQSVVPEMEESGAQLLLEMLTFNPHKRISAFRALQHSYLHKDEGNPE
Chain of Cyclin-dependent kinase 4/cyclin D1 (P24385 whole entry, further chain): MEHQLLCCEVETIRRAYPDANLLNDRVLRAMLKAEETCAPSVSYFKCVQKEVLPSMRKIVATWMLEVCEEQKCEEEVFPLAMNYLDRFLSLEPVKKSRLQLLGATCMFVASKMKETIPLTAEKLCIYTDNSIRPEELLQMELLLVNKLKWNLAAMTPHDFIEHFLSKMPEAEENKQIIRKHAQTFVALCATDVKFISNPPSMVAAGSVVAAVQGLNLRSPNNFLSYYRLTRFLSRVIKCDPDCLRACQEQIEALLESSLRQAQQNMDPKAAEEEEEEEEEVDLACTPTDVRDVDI
Chain of CDK1/Cyclin A (P06493 whole entry): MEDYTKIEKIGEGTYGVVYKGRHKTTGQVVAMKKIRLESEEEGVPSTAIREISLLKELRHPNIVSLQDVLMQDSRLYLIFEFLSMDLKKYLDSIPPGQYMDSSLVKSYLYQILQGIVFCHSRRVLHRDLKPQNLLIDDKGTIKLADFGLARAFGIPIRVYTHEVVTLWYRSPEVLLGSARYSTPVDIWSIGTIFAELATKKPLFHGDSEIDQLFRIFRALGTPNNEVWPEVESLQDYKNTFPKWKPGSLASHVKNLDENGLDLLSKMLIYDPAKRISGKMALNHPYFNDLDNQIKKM
Chain of CDK1/Cyclin A (P20248 whole entry, further chain): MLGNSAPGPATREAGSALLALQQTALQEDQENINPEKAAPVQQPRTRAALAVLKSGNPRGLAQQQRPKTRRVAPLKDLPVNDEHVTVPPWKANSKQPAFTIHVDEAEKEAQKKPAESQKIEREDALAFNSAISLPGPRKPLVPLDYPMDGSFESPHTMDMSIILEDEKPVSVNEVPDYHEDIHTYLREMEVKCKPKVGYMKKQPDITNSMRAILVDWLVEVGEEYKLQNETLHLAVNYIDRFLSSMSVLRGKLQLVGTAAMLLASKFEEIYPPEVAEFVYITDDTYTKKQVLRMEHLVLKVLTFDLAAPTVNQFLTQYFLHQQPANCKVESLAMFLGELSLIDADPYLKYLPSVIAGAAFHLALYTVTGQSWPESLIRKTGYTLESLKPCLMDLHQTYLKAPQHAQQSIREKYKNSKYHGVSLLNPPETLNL

`CCN1CCN(Cc2ccc(Nc3ncc(F)c(-c4cc(F)c5c(c4)C(C)(CC)C(C)=N5)n3)nc2)CC1` (stereo unspecified): the results for the IC50 in data set [1], in data set [2] and in [3] were 26 nM, 33 nM and 966 nM, respectively. For the same molecule, the Ratio IC50 in data set [4] came to 37. In data set [5], this molecule yielded a clearance of 50.7 mL/min/kg. The Vd in [6] came to 25.1 L/kg. The molecule also yielded a Cmax in data set [7] of 58.5 ng/mL. Further, the AUC(0-t) at 24 h is 685 ng·h/mL in data set [8] and 403 ng·h/mL in [9]. Besides, the values for the AUC(0-inf) in data set [10] and in data set [11] were 696 ng·h/mL and 412 ng·h/mL, respectively. Besides, the half-life in [12] is 5.3 h; in data set [13], 4.7 h. The bioavailability in data set [14] amounted to 23%.

As for `CCN1CCN(Cc2ccc(Nc3ncc(F)c(-c4cc(F)c5nc(C)n(C(C)C)c5c4)n3)nc2)CC1` [ABEMACICLIB], in data set [15], the Kp uu amounted to 0.03. Further, the IC50 in data set [16] was 48.1 nM.

On to `CCN1CCN(c2ccc(Nc3ncc(F)c(-c4cc(F)c5c(c4)C4(CCCC4)C(C)=N5)n3)nc2)CC1`, for which the values for the half-inhibitory concentration (IC50) in [1] and in [2] were 16 nM and 18 nM, respectively. Besides, the clearance in [5] stood at 15 mL/min/kg. In addition, the Vd in data set [6] was 5.7 L/kg. The Cmax in [7] turned out to be 70.4 ng/mL. Moreover, the results for the AUC(0-t) at 24 h in [8] and in data set [9] were 2110 ng·h/mL and 842 ng·h/mL, respectively. Besides, the AUC(0-inf) in data set [10] was found to be 2230 ng·h/mL; in data set [11] it was 1360 ng·h/mL. Further, the half-life in data set [12] is 7 h; in data set [13], 9.8 h. In data set [14], the bioavailability worked out at 16%.

Molecule `CC1=Nc2c(F)cc(-c3nc(Nc4ccc(N5CCNCC5)cn4)ncc3F)cc2C12CCCC2` yielded a half-life at 10 µM in [17] of 0.47 h. In addition, the microsomal CLint at 10 µM in data set [18] was 49.2 µL/min/mg. Besides, the remaining at 1 h, 10 µM in data set [19] is 24%; in [20] it was 94.4%. Also, the results for the IC50 in data set [1] and in data set [2] were 6 nM and 8 nM, respectively. In data set [4], the Ratio IC50 is 25. Moreover, the clearance in [5] was found to be 34.7 mL/min/kg. The Vd in [6] turned out to be 17.2 L/kg. Further, the concentration in [7] peaked (Cmax) at 56.6 ng/mL. Also, the results for the AUC(0-t) at 24 h in data set [8] and in [9] were 949 ng·h/mL and 671 ng·h/mL, respectively. The same molecule showed an AUC(0-inf) in data set [10] of 1000 ng·h/mL. In [12], the half-life was 5.8 h. The molecule further returned a bioavailability in data set [14] of 28%.

As to `CCN1CCN(c2ccc(Nc3ncc(F)c(-c4ccc5c(c4)C4(CCCC4)C(C)=N5)n3)nc2)CC1`, the Ratio IC50 in data set [4] worked out at 18. In addition, the clearance in data set [5] was 16.9 mL/min/kg. Besides, the Vd in data set [6] worked out at 7.1 L/kg. In data set [7], this molecule showed a Cmax of 99.9 ng/mL. Also, the AUC(0-t) at 24 h in data set [8] came to 1900 ng·h/mL; in [9], 1200 ng·h/mL. The AUC in data set [21] was 2000 ng·h/mL; in [22], 3651 ng·h/mL. This molecule also had a half-life in data set [12] of 6.1 h. Also, in [23], the F is recorded as 25%.

`CN(C)C(=O)c1cc2cnc(Nc3ccc(N4CCNCC4)cn3)nc2n1C1CCCC1` [RIBOCICLIB]: the Kp uu in [24] was found to be 0.12.

Turning to `CCN1CCN(Cc2ccc(Nc3ncc(F)c(-c4cc(F)c5c(c4)C4(CCCC4)C(C)=N5)n3)nc2)CC1`, in data set [17], the half-life at 10 µM stood at 0.135 h. Besides, the microsomal CLint at 10 µM in data set [18] came out at 171 µL/min/mg. The remaining at 1 h, 10 µM was 1% in [19] and 81.1% in data set [20]. Besides, the figures for the IC50 in data set [1] and in data set [2] were 2 nM and 12 nM, respectively. In data set [5], this molecule yielded a clearance of 48.9 mL/min/kg. Further, the Vd in data set [6] amounted to 16.7 L/kg. Further, the Cmax in data set [7] was determined as 77.1 ng/mL. In addition, the AUC(0-t) at 24 h in data set [8] was 670 ng·h/mL; in [9] it was 813 ng·h/mL. Further, the AUC(0-inf) was 686 ng·h/mL in data set [10] and 827 ng·h/mL in data set [11]. For the same molecule, the half-life is 4.6 h in [12] and 3.6 h in data set [13]. The molecule also yielded a bioavailability in data set [14] of 48%.

Consider `CC(=O)c1c(C)c2cnc(Nc3ccc(N4CCNCC4)cn3)nc2n(C2CCCC2)c1=O` [PALBOCICLIB], for which the Kp uu at 5 min in [25] was determined as 0.01.

The IC50 is the midpoint of a concentration-inhibition curve. For orientation: clearance means a measure of how efficiently the substance is removed, as volume per time. A high value points to a high capacity for elimination. The term Cmax denotes the peak of the concentration-time curve. As a reminder, the AUC(0-t) is exposure summed from dosing to a finite time, without extrapolation to infinity. The term AUC(0-inf) denotes total exposure, with the tail of the curve extrapolated. Low readings indicate less exposure, high ones more exposure. One may read the half-life as how long it takes for the measured level to halve. As a reminder, the bioavailability is dose-corrected exposure relative to a reference, in per cent. High values mean much systemic uptake, low ones little systemic uptake. As a reminder, the AUC is concentration integrated over time. Higher therefore signals more exposure.
